# Experimental data taken from patent US20130324437A1, “METHOD FOR IDENTIFYING ANTIMICROBIAL COMPOUNDS AND DETERMINING ANTIBIOTIC SENSITIVITY” (THE REGENTS OF THE UNIVERSITY OF CALIFORNIA, priority 2010, published 2013).
# Read-outs that look alike come from different tables or passages of the source.
# Assays:
# [1] = system: Bacillus subtilis; test: Cytological profiling of Bacillus subtilis (FM 4-64, DAPI, Sytox Green); format: cell-based; conditions: FIG. 8
# Protocol: (§1) FIG. 8. Affect of various treatments on Bacillus subtilis cell architecture and permeability. (A-J) Cytological profiling. Cells were stained with the membrane stain FM 4-64 (red) and the membrane impermeable nucleotide stains Sytox Green (green) and DAPI (blue) and visualized 2 hours after treatment unless otherwise noted. […] Cells imaged after 1 hr of treatment. […] Cells were imaged after 8 hours. (K) Cell permeability as assessed by Sytox staining intensity per pixel.
# The effects of these drugs on the Gram positive bacterium Bacillus subtilis was determined using the fluorescent membrane stain FM 4-64 and two nucleotide stains that are membrane impermeable (DAPI and Sytox).
# [2] = system: proton motive force (PMF); test: DiSC3(5) fluorometer assay of proton motive force; format: cell-based, Bacillus subtilis; conditions: vancomycin at the MIC
# Protocol: as §1
# The fluorescent stain DiSC3(5) was used in a fluorometer assay, in which cells with a decreased PMF show increased fluorescence.
# [3] = system: Escherichia coli and Bacillus subtilis cells; test: Summary of cytological profiles by mechanism of action (FIG. 1); format: cell-based; conditions: example compound of the MOA class
# Protocol: FIG. 1. Summary of cytological profiles for drugs with the indicated mechanisms of action (MOA).
# To determine if different classes of antimicrobials can be distinguished based on cytological parameters, comparative cytological analysis of Escherichia coli and Bacillus subtilis cells treated with several different classes of antibiotics was performed. […] Also included were nonspecific inhibitors such as bleach, ethidium bromide, and sodium docecyl sulfate. […] This analysis is expanded to molecules with unknown MOAs as described below.
# [4] = system: gram positive bacteria and the E. coli imp mutant; conditions: Kang et al. (2009); Pache & Champman (1972); cited from earlier work
# [5] = system: E. coli imp strain; test: Cytological profiling of E. coli imp strain (DAPI staining intensity); format: cell-based, Escherichia coli; conditions: 10 minute exposure, FIG. 10
# Protocol: FIG. 10. Measurements of DAPI staining for single cells after 10 minute exposure to nisin, Spirohexenolide A, chlorothricin, and DMSO. […] Cells treated with nisin, SpiroA, and chlorothricin show increased fluorescence comparted to untreated control.
# Cytological profiling was used to determine the MOA of spirohexenolide A. A culture of the E. coli imp strain was grown in LB media at 30° C. and spirohexenolide A was added at various concentrations. After either 10 minutes or two hours, samples were stained with FM 4-64 and DAPI for examination with a fluorescence microscope. The cytological profile of spirohexenolide A was identical to that for nisin, a compound that forms channels in the membrane. Chromosome stains such as DAPI and Sytox green are partially excluded from the cell by the cytoplasmic membrane in untreated cells, but are taken up in cells treated with permeablizers such as nisin.
# [6] = system: E. coli strain JP750; conditions: Pogliano et al. 1997; cited from earlier work
# [7] = system: E. coli strain JP750; format: cell-based, Escherichia coli; conditions: for cell length: cell elongation, FIG. 2 / FIG. 3; for chromosome morphology: 2 hours treatment; for chromosomes exhibiting doughnut or ring shape: lethal dose (MIC), 2 hours, n=50
# Protocol: The dose-dependent cytological profiles for the various classes of antibiotics was determined. In general, a series of cultures of the appropriate strain were grown in LB at 30° C. until the cultures reached a density of approximately 2×10^8 cells/ml, at which point the compound of interest was added so that the final concentrations ranged from 0 to 200 μg/ml. For each compound, samples representing ⅕×, 1× and 5× the MIC were examined. Samples were taken at various times after addition of drug (ranging from 0.2 to 3 hours). The cells were stained with FM 4-64 (1 μg/ml) to visualize the cell membranes and DAPI (5 μg/ml) to visualize the chromosome (Pogliano et al. (1999) Mol. Microbiol. 31:1149).
# Images of each stain and any fluorescently-tagged fusion protein present in the strain were then captured using a high resolution microscope. Cell length and width, chromosome length and shape, distance of the chromosome from each cell pole, the number of chromosomes per cell, and the presence and distribution of GFP (or GFP fusions) present within the cells were measured.
# Strain JP750 expresses a SeqA-GFP fusion from an IPTG dependent promoter. SeqA-GFP forms fluorescent foci that indicate the position of DNA replication forks/hemimethylated DNA within the cell (Brendler et al. (2000) EMBO 19:6249). After two hours of growth, samples were taken, stained with FM 4-64 (1 μg/ml) to visualize the cell membranes, and DAPI (5 μg/ml) to visualize the chromosome.
# [8] = system: E. coli strains JP750 or W3110; test: Determination of MIC (growth in LB with antibiotic); format: cell-based; conditions: Escherichia coli, read-out: minimal inhibitory concentration (MIC)
# Protocol: The minimal inhibitory concentration (MIC) of each antibiotic was determined for E. coli strains JP750 or W3110, and for Bacillus subtilis strain PY79. A test tube containing 5 ml of LB was inoculated with a single colony and grown until the culture reached a density of approximately 2×10^8 cells/ml. Small inoculums (20 μl) of this culture were then diluted into LB containing various concentrations of antibiotic ranging from 0 to 200 μg/ml and the cultures were incubated overnight at 30° C. The MIC was the lowest concentration that blocked growth.
# [9] = system: E. coli; test: Growth curve (optical density at 600 nm); format: cell-based, Escherichia coli
compound,measurement,setting,value
N#CC(C#N)=NNc1cccc(Cl)c1 [CCCP],"cytological phenotype (membrane, chromosome, permeability)",[1],cells with uneven membrane staining and decondensed chromosomes
same,effect on proton motive force / membrane polarization,[2],rapidly depolarizes the membranes
C[C@@H](O)[C@H](NC(=O)c1ccc(C#Cc2ccc(CN3CCOCC3)cc2)cc1)C(=O)NO [CHIR-090],cytological profile (FIG. 1 summary),[3],produces chains of cells with increased permeability
CC1=C[C@]2(C)/C=C(C)/C=C/C[C@@H](O)/C=C3C=C/C(=C4\C(=O)O[C@]2(C[C@@H]1C)C4=O)OC/3 [Spirohexenolide A],antibacterial spectrum,[4],active against gram positive bacteria and the E. coli imp mutant
same,DAPI staining intensity relative to untreated (WT) cells,[5],5 ×
[Na+].[O-]Cl [bleach],cytological profile (FIG. 1 summary),[3],causes the chromosome to condense into a dramatic ribbon-like structure
CC1=C(C(=O)O)N2C(=O)[C@@H](NC(=O)[C@H](N)c3ccccc3)[C@H]2SC1 [cephalexin],chromosome shape,[6],chromosome shape is not affected
same,cytological profile (FIG. 1 summary),[3],produces elongated cells with multiple chromosomes
same,cell length,[7],elongated
O=C(N[C@H](CO)[C@H](O)c1ccc([N+](=O)[O-])cc1)C(Cl)Cl [chloramphenicol],MIC,"[8]; LB, overnight at 30° C.",5 µg/mL
same,cytological profile (FIG. 1 summary),[3],leads to a toroidal chromosome and wider cells
same,chromosome morphology,[7],caused chromosomes to form rings
same,distance between edge of chromosome and cell pole,"[7]; lethal dose (5 μg/ml), two hours",dramatic increase
same,chromosomes exhibiting doughnut or ring shape,[7],98%
COc1ccc(Cl)c(C)c1C(=O)O[C@@H]1C[C@H](O[C@H]2[C@H](O)C[C@H](O[C@H]3CCC[C@@H]4[C@@H]3C=C[C@H]3CCCC/C=C/[C@@H]5C=C(C(=O)O)[C@H](C)C[C@]56OC(=O)C(=C6O)OC(=O)[C@@]43C)O[C@@H]2C)O[C@H](C)[C@H]1O [chlorothricin],antibacterial spectrum,[4],active against gram positive bacteria and the E. coli imp mutant
same,DAPI staining,[5],increased DAPI staining
NC[C@H]1O[C@H](O[C@H]2[C@H](O)[C@@H](O[C@H]3O[C@H](CO)[C@@H](O)[C@H](N)[C@H]3O)[C@H](N)C[C@@H]2N)[C@H](O)[C@@H](O)[C@@H]1O [kanamycin],MIC,"[8]; LB, overnight at 30° C.",50 µg/mL
CCn1cc(C(=O)O)c(=O)c2ccc(C)nc21 [nalidixic acid],MIC,[8],0.5 µg/mL
same,effect on growth (optical density at 600 nm),[9]; five-fold below the MIC,no detectable effect on growth
same,effect on growth,[9]; lethal dose (1×MIC),reduced growth
same,cytological profile (FIG. 1 summary),[3],produces elongated cells with centrally localized and fragmented DNA
same,chromosome morphology,[7],elongated chromosomes
same,SeqA-GFP foci distribution,"[7]; LB, 30° C., FIG. 2",highly elongated chromosomes in which the SeqA foci are clustered together
same,cell length,[7],caused elongation
CC1(C)S[C@@H]2[C@H](NC(=O)Cc3ccccc3)C(=O)N2[C@H]1C(=O)O [penicillin G],"cytological phenotype (membrane, chromosome, permeability)",[1],cells with condensed chromosomes that lyse at various times
same,cytological profile (FIG. 1 summary),[3],causes chromosome condensation and lysis
[H]/N=C(/N)N[C@H]1[C@H](O)[C@@H](O)[C@H](O[C@@H]2O[C@@H](C)[C@](O)(C=O)[C@H]2O[C@@H]2O[C@@H](CO)[C@H](O)[C@@H](O)[C@@H]2NC)[C@@H](N/C(N)=N\[H])[C@@H]1O [streptomycin],MIC,"[8]; LB, overnight at 30° C.",50 µg/mL
same,chromosome morphology,[7],condensed chromosomes but not ring formation
CN(C)[C@@H]1C(O)=C(C(N)=O)C(=O)[C@@]2(O)C(O)=C3C(=O)c4c(O)cccc4[C@@](C)(O)[C@H]3C[C@@H]12 [tetracycline],MIC,"[8]; LB, overnight at 30° C.",20 µg/mL
same,chromosomes exhibiting doughnut or ring shape,[7],98%
COc1cc(Cc2cnc(N)nc2N)cc(OC)c1OC [trimethoprim],cytological profile (FIG. 1 summary),[3],condense the chromosome without affecting cell width
CN[C@H](CC(C)C)C(=O)N[C@H]1C(=O)N[C@@H](CC(N)=O)C(=O)N[C@H]2C(=O)N[C@H]3C(=O)N[C@H](C(=O)N[C@H](C(=O)O)c4cc(O)cc(O)c4-c4cc3ccc4O)[C@H](O)c3ccc(c(Cl)c3)Oc3cc2cc(c3O[C@@H]2O[C@H](CO)[C@@H](O)[C@H](O)[C@H]2O[C@H]2C[C@](C)(N)[C@H](O)[C@H](C)O2)Oc2ccc(cc2Cl)[C@H]1O [vancomycin],"cytological phenotype (membrane, chromosome, permeability)",[1],internal membrane vesicles and increased DAPI and Sytox permeability in a subset of the cells
same,effect on proton motive force / membrane polarization,[2],no effect on PMF
same,cytological profile (FIG. 1 summary),[3],produces large internal membrane vesicles
nisin,DAPI staining intensity relative to untreated (WT) cells,[5],5 ×
same,"cytological phenotype (membrane, chromosome, permeability)",[1],increased DAPI and Sytox staining
same,effect on proton motive force / membrane polarization,[2],rapidly collapse the proton motive force (PMF)
same,cytological profile (FIG. 1 summary),[3],show increased permeability at early times
polymyxin B,cytological profile compared with reference,[7]; two hours at the MIC,cytological profile similar to CHIR-090
